Assay [1] deals with T1, human ACC1 (acetyl-coenzyme A carboxylase alpha transcript variant 1) (Homo sapiens, UniProt Q13085).
T1 construct: FLAG (C); made in house; host or cells: baculovirus-infected insect cells (Hi5)
In words: Human ACC1 enzyme assay, Assay B1 (ADP-Glo). Format: biochemical. In general terms: ADP-Glo turns the ADP formed in a reaction into a luminescent signal.

A further assay deals with MCF7. In words: Cell proliferation assay (CellTiter-Glo, 96 h), MCF7. As to conditions: Homo sapiens. Format: cell-based. In outline: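 Tumour cells are plated overnight, a baseline luminescence plate is read, and parallel plates receive compound for 96 hours at 37° C. before CellTiter-Glo measurement. Percent inhibition uses baseline-subtracted values relative to untreated cells.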
(In general: ATP-based viability assays read luminescence as a measure of living cells.)

For another assay, the target named is recombinant human ACC1 (Homo sapiens, UniProt Q13085). Kind of assay: Human ACC1 enzyme assay, Assay A1 (HTRF ADP immunoassay).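 Further: ADP generated by the enzyme quantified via competitive time-resolved FRET, read as europium cryptate to d2 energy transfer after 1 h at 22 °C with labelled ADP tracer and anti-ADP antibody.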 Background: In TR-FRET formats the signal depends on donor and acceptor labels being close together.
The target in assay [2] is human ACC2 (acetyl-coenzyme A carboxylase 2) (Homo sapiens, UniProt O00763). In words: Human ACC2 enzyme assay, Assay B2 (ADP-Glo).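 Further: human ACC2 activity read as ADP product, detected by luciferase glow luminescence after residual ATP removal, enzyme near 2 ng/µl in linear range, detection steps at 22 °C.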
Assay [3] deals with acetyl-CoA carboxylase 2 (ACC2) (Homo sapiens, UniProt O00763). Kind of assay: Human ACC2 enzyme assay, Assay A2 (HTRF ADP immunoassay).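 Further: ADP generated by ACC2 quantified via competitive time-resolved FRET between europium cryptate anti-ADP antibody and d2-tagged ADP, enzyme kept in linear range near 0.6 ng/µl.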
[4] abbreviates: Assay B1, read-out: ACC 1 (=B1) IC50.
The mark [5] stands for this setting: MCF7, Table 7, 96-hour incubation.

The values that follow come from patent US20130040935A1, “CYCLIC KETO-ENOLS FOR THERAPY” (BAYER INTELLECTUAL PROPERTY GMBH, priority 2010, published 2013).

Structures are written as SMILES. Like-named read-outs stand apart in the source and are kept apart here. Bounds are passed on as bounds.

For orientation: IC50 means the concentration needed to halve the response being measured.

Sequence of human ACC2 (acetyl-coenzyme A carboxylase 2) (O00763 27-2458 limits assumed): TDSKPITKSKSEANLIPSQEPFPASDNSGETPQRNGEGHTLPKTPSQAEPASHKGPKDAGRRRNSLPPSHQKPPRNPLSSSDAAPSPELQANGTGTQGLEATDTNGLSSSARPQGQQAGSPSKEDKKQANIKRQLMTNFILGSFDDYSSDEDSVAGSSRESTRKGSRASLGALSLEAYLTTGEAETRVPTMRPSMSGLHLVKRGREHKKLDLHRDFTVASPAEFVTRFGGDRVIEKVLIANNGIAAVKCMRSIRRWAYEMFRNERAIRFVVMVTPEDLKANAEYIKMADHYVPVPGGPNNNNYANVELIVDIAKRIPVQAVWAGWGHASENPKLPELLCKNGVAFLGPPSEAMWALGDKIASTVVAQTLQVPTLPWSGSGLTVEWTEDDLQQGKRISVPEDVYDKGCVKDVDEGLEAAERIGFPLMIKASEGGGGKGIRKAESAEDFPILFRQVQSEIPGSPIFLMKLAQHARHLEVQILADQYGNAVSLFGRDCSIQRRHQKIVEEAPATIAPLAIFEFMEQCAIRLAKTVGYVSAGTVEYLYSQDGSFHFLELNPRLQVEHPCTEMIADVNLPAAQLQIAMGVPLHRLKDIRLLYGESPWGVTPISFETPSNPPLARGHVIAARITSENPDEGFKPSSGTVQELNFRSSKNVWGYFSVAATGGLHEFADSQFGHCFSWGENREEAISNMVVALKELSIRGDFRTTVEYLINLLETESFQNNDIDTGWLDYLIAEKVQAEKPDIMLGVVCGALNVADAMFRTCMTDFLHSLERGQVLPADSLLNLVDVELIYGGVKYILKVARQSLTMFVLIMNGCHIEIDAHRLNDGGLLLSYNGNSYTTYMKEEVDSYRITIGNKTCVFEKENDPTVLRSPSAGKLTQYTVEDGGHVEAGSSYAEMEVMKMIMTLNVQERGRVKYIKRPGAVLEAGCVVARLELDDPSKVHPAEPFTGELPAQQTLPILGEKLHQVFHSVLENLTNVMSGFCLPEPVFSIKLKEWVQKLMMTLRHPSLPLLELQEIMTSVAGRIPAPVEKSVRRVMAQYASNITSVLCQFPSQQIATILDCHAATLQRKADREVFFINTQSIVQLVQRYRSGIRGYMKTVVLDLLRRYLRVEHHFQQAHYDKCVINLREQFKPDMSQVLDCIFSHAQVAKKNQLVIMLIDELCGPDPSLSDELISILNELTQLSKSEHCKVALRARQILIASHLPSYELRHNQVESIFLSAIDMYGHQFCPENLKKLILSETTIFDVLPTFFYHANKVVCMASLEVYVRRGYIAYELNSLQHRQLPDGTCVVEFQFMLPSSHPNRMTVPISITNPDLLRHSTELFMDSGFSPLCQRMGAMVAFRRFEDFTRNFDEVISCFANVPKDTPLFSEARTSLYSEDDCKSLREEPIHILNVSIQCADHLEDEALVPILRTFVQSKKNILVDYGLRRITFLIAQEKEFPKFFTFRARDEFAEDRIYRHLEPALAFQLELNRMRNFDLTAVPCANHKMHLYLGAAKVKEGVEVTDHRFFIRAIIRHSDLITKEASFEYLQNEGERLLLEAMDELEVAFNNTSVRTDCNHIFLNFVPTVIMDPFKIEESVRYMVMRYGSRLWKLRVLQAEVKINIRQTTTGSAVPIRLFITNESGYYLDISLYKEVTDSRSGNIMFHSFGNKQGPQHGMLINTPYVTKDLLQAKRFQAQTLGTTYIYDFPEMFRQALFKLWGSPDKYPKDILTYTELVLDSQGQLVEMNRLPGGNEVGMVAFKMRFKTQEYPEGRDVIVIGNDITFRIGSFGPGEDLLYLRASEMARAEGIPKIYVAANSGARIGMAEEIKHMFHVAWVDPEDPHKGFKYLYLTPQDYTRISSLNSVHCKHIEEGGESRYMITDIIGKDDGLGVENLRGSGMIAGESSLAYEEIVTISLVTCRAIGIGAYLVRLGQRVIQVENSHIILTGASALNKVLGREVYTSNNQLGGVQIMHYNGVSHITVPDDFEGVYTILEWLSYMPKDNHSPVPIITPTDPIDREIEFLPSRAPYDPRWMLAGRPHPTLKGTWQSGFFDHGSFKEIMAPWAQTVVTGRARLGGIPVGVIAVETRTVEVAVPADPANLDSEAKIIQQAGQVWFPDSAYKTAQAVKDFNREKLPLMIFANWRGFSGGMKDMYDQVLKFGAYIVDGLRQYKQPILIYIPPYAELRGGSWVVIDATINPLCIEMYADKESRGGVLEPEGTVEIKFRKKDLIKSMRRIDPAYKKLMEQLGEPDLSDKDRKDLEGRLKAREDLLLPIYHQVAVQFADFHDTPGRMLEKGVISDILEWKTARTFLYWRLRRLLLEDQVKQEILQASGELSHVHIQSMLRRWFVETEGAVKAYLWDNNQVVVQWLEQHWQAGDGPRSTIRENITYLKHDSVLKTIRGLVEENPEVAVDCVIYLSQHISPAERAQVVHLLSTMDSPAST
Sequence of acetyl-CoA carboxylase 2 (ACC2) (O00763 39-2458 limits assumed): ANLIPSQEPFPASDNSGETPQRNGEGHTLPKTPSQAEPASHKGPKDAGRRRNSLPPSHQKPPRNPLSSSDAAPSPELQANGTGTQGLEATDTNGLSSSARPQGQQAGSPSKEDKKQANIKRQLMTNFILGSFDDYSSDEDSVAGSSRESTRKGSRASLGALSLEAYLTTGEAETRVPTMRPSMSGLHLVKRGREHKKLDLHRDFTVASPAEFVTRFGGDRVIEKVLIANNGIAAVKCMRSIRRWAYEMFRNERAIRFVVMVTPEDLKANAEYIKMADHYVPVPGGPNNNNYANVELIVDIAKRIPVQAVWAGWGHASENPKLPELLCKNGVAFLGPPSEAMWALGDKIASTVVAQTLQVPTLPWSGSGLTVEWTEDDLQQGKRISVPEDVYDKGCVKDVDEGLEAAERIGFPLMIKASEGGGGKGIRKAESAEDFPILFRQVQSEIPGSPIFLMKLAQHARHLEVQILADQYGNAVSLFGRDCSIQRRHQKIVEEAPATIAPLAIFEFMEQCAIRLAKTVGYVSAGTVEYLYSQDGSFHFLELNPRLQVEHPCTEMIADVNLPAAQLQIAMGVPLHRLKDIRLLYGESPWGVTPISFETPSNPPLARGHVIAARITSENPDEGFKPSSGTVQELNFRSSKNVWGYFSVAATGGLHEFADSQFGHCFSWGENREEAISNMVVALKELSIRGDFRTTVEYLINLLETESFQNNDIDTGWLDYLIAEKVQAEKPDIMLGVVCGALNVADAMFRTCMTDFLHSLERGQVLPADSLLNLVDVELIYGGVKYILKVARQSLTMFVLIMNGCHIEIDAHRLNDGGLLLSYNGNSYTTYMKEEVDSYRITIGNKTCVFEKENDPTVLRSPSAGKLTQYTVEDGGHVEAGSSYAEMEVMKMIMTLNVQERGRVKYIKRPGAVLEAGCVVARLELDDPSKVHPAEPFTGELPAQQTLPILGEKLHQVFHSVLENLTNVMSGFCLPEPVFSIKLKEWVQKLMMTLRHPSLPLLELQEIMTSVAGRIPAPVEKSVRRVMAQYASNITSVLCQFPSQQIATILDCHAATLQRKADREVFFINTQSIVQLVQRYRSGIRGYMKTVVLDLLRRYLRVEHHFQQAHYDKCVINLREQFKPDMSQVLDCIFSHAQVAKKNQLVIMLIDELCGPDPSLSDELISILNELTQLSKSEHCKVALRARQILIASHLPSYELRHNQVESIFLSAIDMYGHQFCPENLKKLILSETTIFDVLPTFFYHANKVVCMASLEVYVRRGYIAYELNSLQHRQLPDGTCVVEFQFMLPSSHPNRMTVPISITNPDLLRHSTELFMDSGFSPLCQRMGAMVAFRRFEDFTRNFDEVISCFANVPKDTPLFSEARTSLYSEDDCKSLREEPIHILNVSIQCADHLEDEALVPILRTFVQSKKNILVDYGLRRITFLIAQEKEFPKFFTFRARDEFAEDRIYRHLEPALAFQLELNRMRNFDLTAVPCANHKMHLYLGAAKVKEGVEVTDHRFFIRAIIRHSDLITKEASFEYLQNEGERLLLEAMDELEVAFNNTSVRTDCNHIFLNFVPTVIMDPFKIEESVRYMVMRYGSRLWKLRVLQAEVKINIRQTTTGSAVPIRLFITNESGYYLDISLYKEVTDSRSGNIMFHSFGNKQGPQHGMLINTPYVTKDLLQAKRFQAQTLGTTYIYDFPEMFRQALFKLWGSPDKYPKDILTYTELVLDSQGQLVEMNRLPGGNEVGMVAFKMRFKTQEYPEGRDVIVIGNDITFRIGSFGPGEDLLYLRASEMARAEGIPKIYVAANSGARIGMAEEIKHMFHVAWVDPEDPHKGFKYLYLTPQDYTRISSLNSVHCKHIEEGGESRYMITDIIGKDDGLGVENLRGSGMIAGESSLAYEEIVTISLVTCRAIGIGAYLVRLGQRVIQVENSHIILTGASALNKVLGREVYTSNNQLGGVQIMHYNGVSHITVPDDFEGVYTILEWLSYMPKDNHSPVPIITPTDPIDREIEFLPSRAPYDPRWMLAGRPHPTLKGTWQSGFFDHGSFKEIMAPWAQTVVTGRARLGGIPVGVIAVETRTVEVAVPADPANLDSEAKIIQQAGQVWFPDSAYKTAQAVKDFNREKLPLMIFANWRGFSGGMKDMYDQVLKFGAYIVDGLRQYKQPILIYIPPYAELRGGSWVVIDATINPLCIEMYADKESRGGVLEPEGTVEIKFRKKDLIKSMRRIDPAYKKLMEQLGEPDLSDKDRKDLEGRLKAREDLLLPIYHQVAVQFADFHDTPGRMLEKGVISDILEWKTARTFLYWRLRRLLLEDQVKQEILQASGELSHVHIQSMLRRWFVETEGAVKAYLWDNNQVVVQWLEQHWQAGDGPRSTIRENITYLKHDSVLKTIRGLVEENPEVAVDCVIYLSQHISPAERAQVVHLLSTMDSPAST
Experimental for recombinant human ACC1: The inhibitory activity of the substances of this invention with regard to acetyl-CoA carboxylase 1 (ACC1) was measured using the ACC1 assay described in the paragraphs below. The basic principle of the assay is the measurement of adenosine diphosphate (ADP), which is formed as a by-product, by means of an HTRF®-based competitive immunoassay (HTRF=Homogeneous Time Resolved Fluorescence).
Typical concentrations were in the range of 2.5 ng/μl.
The amount of complex between d2-labelled ADP and europium cryptate-labelled anti-ADP antibody was then determined by measuring the resonance energy transfer from the europium cryptate to d2.

As to `COCC[C@H]1CC[C@]2(CC1)NC(=O)C(c1cc(-c3ccc(Cl)c(F)c3)ccc1C)=C2O` [1-114, (5s,8s)-3-(4′-Chloro-3′-fluoro-4-methylbiphenyl-3-yl)-4-hydroxy-8-(2-methoxyethyl)-1-azaspiro[4.5]dec-3-en-2-one], the IC50 in assay [1] (setting [4]) amounted to 113 nM; in the assay on MCF7 (setting [5]), 43 nM; at recombinant human ACC1 it was 236 nM; in assay [2] it was 1640 nM; in assay [3], 2210 nM.
With `CCO[C@H]1CC[C@]2(CC1)NC(=O)C(c1cc(-c3ccc(Cl)cc3)ccc1C)=C2O` [1-146, (5s,8s)-3-(4′-Chloro-4 methylbiphenyl-3-yl)-8-ethoxy-4-hydroxy-1-azaspiro[4.5]dec-3-en-2-one], the IC50 was 115 nM in assay [1] (setting [4]); 47 nM in the assay with MCF7 (setting [5]); 197 nM on recombinant human ACC1; 679 nM in assay [2]; 455 nM in assay [3].
Consider `CO[C@H]1CC[C@]2(CC1)NC(=O)C(c1cc(-c3ccc(Cl)cc3Cl)ccc1C)=C2O` [1-143, (5s,8s)-3-(2′,4′-Dichloro-4-methylbiphenyl-3-yl)-4-hydroxy-8-methoxy-1-azaspiro[4.5]dec-3-en-2-one], for which the IC50 in assay [1] was found to be 161 nM; in the assay with MCF7 (setting [5]), 111 nM; at recombinant human ACC1 it was 282 nM; in assay [2], 2150 nM; in assay [3], 1020 nM.
As to `Cc1ccc(-c2ccc(Cl)cc2)cc1C1=C(O)[C@@]2(CCC[C@H](C(F)(F)F)C2)NC1=O` [1-133, (5S,7S)-3 (4′-Chloro-4 methylbiphenyl-3-yl)-4-hydroxy-7-(trifluoromethyl)-1-azaspiro[4.5]dec-3-en-2-one], the IC50 in assay [1] (setting [4]) is 142 nM; with MCF7 (setting [5]), 75 nM; on recombinant human ACC1, 329 nM; in assay [2], 8100 nM; in assay [3], 2870 nM.
For `Cc1cc(C)c(-c2ccc(Cl)cc2)cc1C1=C(O)[C@]2(CC[C@H](C(F)(F)F)CC2)NC1=O` [1-98, (5s,8s)-3-(4′-Chloro-4,6-dimethylbiphenyl-3-yl)-4-hydroxy-8-(trifluoromethyl)-1-azaspiro[4.5]dec-3-en-2-one], the IC50 in assay [1] worked out at 1040 nM; in the assay on MCF7 (setting [5]), 99 nM; on recombinant human ACC1, 2190 nM; in assay [2], 174 nM; in assay [3], 204 nM.
`O=C1N[C@]2(CCC[C@H](C(F)(F)F)C2)C(O)=C1c1cc(-c2ccc(Cl)cc2)ccc1Cl` [1-137, (5S,7S)-3-(4,4′-Dichlorobiphenyl-3-yl)-4-hydroxy-7-(trifluoromethyl)-1-azaspiro[4.5]dec-3-en-2-one]: the IC50 in assay [1] was found to be 168 nM; in the assay on MCF7 (setting [5]), 439 nM; at recombinant human ACC1, 307 nM; in assay [2], 7490 nM; in assay [3], 7750 nM.
Regarding `Cc1ccc(-c2ccc(Cl)c(F)c2)c(C)c1C1=C(O)[C@]2(CC[C@](O)(C(F)(F)F)CC2)NC1=O` [1-126, (5r,8r)-3-(4′-Chloro-3′-fluoro-2,4-dimethylbiphenyl-3-yl)-4,8-dihydroxy-8-(trifluoromethyl)-1-azaspiro[4.5]dec-3-en-2-one], the IC50 worked out at 204 nM in assay [1] (setting [4]); 594 nM with MCF7 (setting [5]); 300 nM at recombinant human ACC1; 12400 nM in assay [2]; 6370 nM in assay [3].
For `CCO[C@H]1CC[C@@]2(CC1)NC(=O)C(c1cc(-c3ccc(Cl)cc3)ccc1C)=C2O` [1-147, (5r,8r)-3-(4′-Chloro-4 methylbiphenyl-3-yl)-8-ethoxy-4-hydroxy-1-azaspiro[4.5]dec-3-en-2-one], the IC50 in assay [1] (setting [4]) was found to be 150 nM; with MCF7 (setting [5]), 174 nM; at recombinant human ACC1 it was 195 nM; in assay [2], 2030 nM; in assay [3], 1250 nM.
Turning to `CO[C@H]1CC[C@]2(CC1)NC(=O)C(c1cc(-c3ccc(Cl)c(F)c3)ccc1Cl)=C2O` [1-103, (5s,8s)-3-(4,4′-Dichloro-3′-fluorobiphenyl-3-yl)-4-hydroxy-8-methoxy-1-azaspiro[4.5]dec-3-en-2-one], the half-maximal inhibitory concentration (IC50) amounted to 102 nM in assay [1]; 119 nM in the assay on MCF7 (setting [5]); 151 nM at recombinant human ACC1; 4260 nM in assay [2]; 1180 nM in assay [3].
For `CO[C@H]1CC[C@]2(CC1)NC(=O)C(c1cc(-c3ccc(Cl)cc3)c(Cl)cc1C)=C2O` [1-109, (5s,8s)-3-(4′,6-Dichloro-4-methylbiphenyl-3-yl)-4-hydroxy-8-methoxy-1-azaspiro[4.5]dec-3-en-2-one] the same measures were 293 nM, 37 nM, 800 nM, 394 nM and 103 nM.
As for `O=C1N[C@]2(CC[C@@H](C(F)(F)F)CC2)C(O)=C1c1cc(-c2ccc(Cl)cc2)ccc1Cl` [1-134, (5s,8s)-3-(4,4′-Dichlorobiphenyl-3-yl)-4-hydroxy-8 (trifluoromethyl)-1-azaspiro[4.5]dec-3-en-2-one], the IC50 in assay [1] (setting [4]) is 109 nM; in the assay on MCF7 (setting [5]) it was 114 nM; on recombinant human ACC1, 299 nM; in assay [2] it was 2850 nM; in assay [3], 1310 nM.
As to `COC[C@H]1CC[C@]2(CC1)NC(=O)C(c1cc(-c3ccc(Cl)c(F)c3)ccc1Cl)=C2O` [1-113, (5s,8s)-3-(4,4′-Dichloro-3′-fluorobiphenyl-3-yl)-4-hydroxy-8-(methoxymethyl)-1-azaspiro[4.5]dec-3-en-2-one], the IC50 in assay [1] was found to be 101 nM; with MCF7 (setting [5]), 46 nM; at recombinant human ACC1, 260 nM; in assay [2] it was 2710 nM; in assay [3] it was 1350 nM.
`Cc1ccc(-c2ccc(Cl)cc2)cc1C1=C(O)[C@]2(CC[C@](O)(C(F)(F)F)CC2)NC1=O` [1-122, (5r,8r)-3-(4′-Chloro-4-methylbiphenyl-3-yl)-4,8-dihydroxy-8-(trifluoromethyl)-1-azaspiro[4.5]dec-3-en-2-one]: the IC50 was 124 nM in assay [1] (setting [4]); 288 nM with MCF7 (setting [5]); 98 nM on recombinant human ACC1; 6590 nM in assay [2]; 5420 nM in assay [3].
As to `O=C1N[C@]2(CC[C@@H](C(F)(F)F)CC2)C(O)=C1c1cc(-c2ccc(F)c(F)c2)ccc1Cl` [1-99, (5s,8s)-3-(4 Chloro-3′,4′-difluorobiphenyl-3-yl)-4-hydroxy-8-(trifluoromethyl)-1-azaspiro[4.5]dec-3-en-2-one], the IC50 in assay [1] came to 207 nM; in the assay on MCF7 (setting [5]), 120 nM; on recombinant human ACC1, 327 nM; in assay [2] it was 11300 nM; in assay [3], 6670 nM.
As for `CO[C@H]1CC[C@]2(CC1)NC(=O)C(c1cc(-c3ccc(Cl)cc3)c(F)cc1C)=C2O` [1-135, (5s,8s)-3-(4′-Chloro 6 fluoro 4-methylbiphenyl-3-yl)-4-hydroxy-8-methoxy-1-azaspiro[4.5]dec-3-en-2-one], the IC50 in assay [1] stood at 94 nM; in the assay on MCF7 (setting [5]) it was 171 nM; on recombinant human ACC1 it was 220 nM; in assay [2], 1750 nM; in assay [3], 657 nM.
In the same order, the values of `CO[C@H]1CC[C@]2(CC1)NC(=O)C(c1cc(-c3ccc(Cl)c(F)c3)c(Cl)cc1C)=C2O` [1-108, (5s,8s)-3-(4′,6-Dichloro-3′-fluoro-4-methylbiphenyl-3-yl)-4-hydroxy-8-methoxy-1-azaspiro[4.5]dec-3-en-2-one] are 204 nM, 76 nM, 460 nM, 753 nM and 346 nM.
For the compound `Cc1cc(F)c(-c2ccc(Cl)cc2)cc1C1=C(O)[C@]2(CC[C@](O)(C(F)(F)C(F)(F)F)CC2)NC1=O` [1-131, (5r,8r)-3-(4′-Chloro-6-fluoro-4-methylbiphenyl-3-yl)-4,8-dihydroxy-8-(pentafluoroethyl)-1-azaspiro[4.5]dec-3-en-2-one], the IC50 in assay [1] (setting [4]) is 98 nM; with MCF7 (setting [5]), 60 nM; at recombinant human ACC1, 266 nM; in assay [2], 5620 nM; in assay [3], 7620 nM.
With `Cc1c(F)cc(-c2ccc(F)c(F)c2)cc1C1=C(O)[C@]2(CC[C@H](C(F)(F)F)CC2)NC1=O` [1-96, (5s,8s)-4-Hydroxy-8-(trifluoromethyl)-3-(3′,4′,5-trifluoro-4-methylbiphenyl-3-yl)-1-azaspiro[4.5]dec-3-en-2-one], the IC50 in assay [1] (setting [4]) was 238 nM; in the assay on MCF7 (setting [5]), 108 nM; on recombinant human ACC1 it was 416 nM; in assay [2], more than 20000 nM; in assay [3], more than 20000 nM.
Take `CCCOC1CCC2(CC1)OC(=O)C(c1cc(-c3ccc(Cl)cc3)c(C)cc1C)=C2O` (stereo not shown) [2-47, 3-(4′-chloro-4,6-dimethylbiphenyl-3-yl)-4-hydroxy-8-propoxy-1-oxaspiro[4.5]dec-3-en-2-one]: the IC50 in assay [1] (Assay B1, ADP-Glo, read-out: ACC 1 (=B1) IC50) turned out to be 402 nM; with MCF7 (MCF7 cells), 302 nM; at recombinant human ACC1, 592 nM; in assay [2], 389 nM; in assay [3], 453 nM.
For the compound `CO[C@H]1CC[C@]2(CC1)NC(=O)C(c1cc(-c3ccc(F)c(F)c3)cc(F)c1C)=C2O` [1-107, (5s,8s)-4-Hydroxy-8-methoxy-3-(3′,4′,5-trifluoro-4-methylbiphenyl-3-yl)-1-azaspiro[4.5]dec-3-en 2-one], the 50% inhibitory concentration (IC50) in assay [1] is 376 nM; with MCF7 (setting [5]), 267 nM; at recombinant human ACC1, 804 nM; in assay [2] it was more than 20000 nM; in assay [3], more than 20000 nM.
